# Columns and labels:
# GIME cells = assay: Polyploidization of GIME cells (DNA content by flow cytometry); type: cell-based; details: GATA1-null (GIME) cells, 72 hours
# Method: (§1) (A) Y10, (B) GIME, and (C) CMK cells were grown in the presence of TPO, SU6656, or vehicle (DMSO) for 72 hours. DNA content was measured by flow cytometry. The percentages of cells that reach a DNA content of ≧8N are boxed in A and C, those equal to 8N are boxed in B. D) CMK cells were grown as in (C), and cell numbers were enumerated at 0, 24, 48 and 72 h.
# DNA content was then assessed by flow cytometry. Numbers above the bar indicate % of cells ≧8N. b) After 48 hours, GIME cells from a) were stained with anti-CD42 antibodies and the cell surface expression of CD42 was evaluated by flow cytometry.
# (§2) To study how megakaryocytes switch from a proliferative to endomitotic cell cycle, the Src kinase inhibitor SU6656 is being utilized.
# [1] = tested on: wild-type and GATA-1 mutant megakaryocyte progenitors; assay: Proliferation of megakaryocyte progenitors; type: cell-based; details: preliminary data
# From the text: The paradigm for successful, targeted differentiation therapy is the use of all trans retinoic acid (ATRA) for treatment of Acute Promyelocytic Leukemia (APL) (for a review, see (20). Prior to the development of ATRA therapy, the prognosis for patients with APL, which represents 5-10% of adult AML, was very poor. In contrast, the vast majority of APL patients treated with ATRA achieve hematologic remission (21-23). One aim of the current study is to test novel therapeutic strategies for AMKL, in particular, whether the forced induction of MK polyploidization can serve as a “differentiation therapy” for AMKL. […] Furthermore, megakaryocytes are one of the few cell types that are poised to undergo polyploidization during normal maturation.
# [2] = tested on: primary murine megakaryocytes; assay: Polyploidization of primary murine megakaryocytes; type: cell-based; details: data not shown
# From the text: as §2
# [3] = tested on: CMK (human megakaryocytic leukemia) cells; assay: High throughput screen for inducers of megakaryocyte polyploidization; type: cell-based; details: 10 μM, 72 hours, Hoescht stain, high content imaging
# Method: In collaboration with the Broad Institute, a high throughput screen for small molecules was conducted to identify small molecules that preferentially induce polyploidization or differentiation of megakaryocytes. We screened 10,000 compounds from the Broad's extensive collection of small molecules (including known bioactives, kinase and HDAC inhibitors, and natural products) to identify inducers of megakaryocyte polyploidization. The screen was performed in the following manner: 1) 4,000 CMK (human megakaryocytic leukemia) cells were plated into each well of a 384-well plate, 2) 100 n1 of compounds (yielding a final concentration of 10 μM) were pinned into the wells, 3) plates were incubated at 37° C. for 72 hours, 4) cells were fixed and stained with Hoescht, and 5) plates were imaged using an ImageXpressMICRO high content imager with 20× objective. Nine images per well were collected. 6) Data were analyzed using both MetaXpress software and “Cell Profiler,” software designed at MIT and the Broad Institute. Seventy-two plates containing duplicates of nearly 10,000 small molecules were screened.
# CMK cells [4] = assay: CMK cell proliferation (cell numbers enumerated); type: cell-based, human; details: CMK cells, 0, 24, 48 and 72 h
# Method: as §1, with “FIG. 2 illustrates that SU6656 induces polyploidization and proliferative arrest of megakaryocytic leukemia cells. (A)” for “(A)”
# as §2
# CMK cells [5] = assay: Polyploidization of CMK cells (DNA content); type: cell-based, human; details: GATA1/JAK3 double mutant CMK cell line, 72 hours
# Method: as §1, §2
# In collaboration with the Broad Institute, a high throughput screen for small molecules was conducted to identify small molecules that preferentially induce polyploidization or differentiation of megakaryocytes. We screened 10,000 compounds from the Broad's extensive collection of small molecules (including known bioactives, kinase and HDAC inhibitors, and natural products) to identify inducers of megakaryocyte polyploidization. […] 6) Data were analyzed using both MetaXpress software and “Cell Profiler,” software designed at MIT and the Broad Institute. […]
# Y10 cells = assay: Polyploidization of Y10 cells (DNA content by flow cytometry); type: cell-based; details: wild-type (Y10) cells, 72 hours
# Method: as §1, with “FIG. 2 illustrates that SU6656 induces polyploidization and proliferative arrest of megakaryocytic leukemia cells. (A)” for “(A)”
# as §2
smiles,measurement,setting,value
CN(C)S(=O)(=O)c1ccc2c(c1)/C(=C/c1cc3c([nH]1)CCCC3)C(=O)N2 [SU6656],polyploidization,GIME cells,efficiently promoted polyploidization
same,proliferation of megakaryocyte progenitors,[1],effectively reduces proliferation
same,polyploidization,[2],promote polyploidization
same,positive in polyploidization screen,[3],positives
same,proliferation (cell numbers),CMK cells [4],cessation of proliferation
same,polyploidization,CMK cells [5],efficiently promoted polyploidization
same,polyploidization,Y10 cells,efficiently promoted polyploidization
